Our source for the IC50 values is patent EP1581477B1, “CYCLOALKENE DICARBOXYLIC ACID COMPOUNDS AS ANTI-INFLAMMATORY, IMMUNOMODULATORY AND ANTI-PROLIFERATORY AGENTS” (4SC AG, priority 2002, dated 2004).

The target of the assay is T1, human DHODH (Homo sapiens, UniProt Q02127).
T1 construct: Prof; M. Löffler, Marburg, Germany (gift)
T1 sequence (Q02127 whole entry): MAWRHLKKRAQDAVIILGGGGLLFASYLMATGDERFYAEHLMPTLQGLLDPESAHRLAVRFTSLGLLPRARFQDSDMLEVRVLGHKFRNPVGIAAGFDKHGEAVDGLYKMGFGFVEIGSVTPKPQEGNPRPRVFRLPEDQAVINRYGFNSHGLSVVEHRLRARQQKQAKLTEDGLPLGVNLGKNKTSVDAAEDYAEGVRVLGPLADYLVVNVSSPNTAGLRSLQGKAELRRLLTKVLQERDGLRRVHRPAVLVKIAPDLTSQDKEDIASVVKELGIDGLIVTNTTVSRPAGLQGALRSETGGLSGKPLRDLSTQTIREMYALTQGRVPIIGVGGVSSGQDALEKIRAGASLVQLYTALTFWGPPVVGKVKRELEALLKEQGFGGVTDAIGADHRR
The assay can be described thus: Inhibition assay of DHODH activity (spectrophotometric, 2,6-dichloroindophenol reduction). The class given is biochemical. The note with it: recombinant human DHODH; 50 mM TrisHCl, pH 8,0, 30°C; absorption at 600 nm. Here is the method: 3. Inhibition Assay of DHODH activity
The standard assay mixture contained 50 µM decyclo ubichinone, 100 µM dihydroorotate, 60 µM 2,6-dichloroindophenol, as well as 20 mU DHODH The volume activity of the recombinant enzyme used was 30 U/ml. Measurements were conducted in 50 mM TrisHCl (150 mM KCI, 0,1% Triton X-100, pH 8,0) at 30°C in a final volume of 1 ml. The components were mixed, and the reaction was started by adding dihydroorotate. The course of reaction was followed by spectrophotometrically measuring the decrease in absorption at 600 nm for 2 min.
Inhibitory studies were conducted in a standard assay with additional variable amounts of inhibitor.
These investigations were carried out with recombinant human as well as with recombinant murine DHODH provided by Prof. M. Löffler, Marburg, Germany [M. Löffler, Chem. Biol. Interact. 124, (2000), 61-76].
Turning to “2-(1',3'di-methoxy-3,5-difluoro-biphenyl-4-ylcarbamoyl)-5-hydroxy-cyclopent-1-enecarboxylic acid [Example 10]”, the 50% inhibitory concentration (IC50) was less than 5000 nM.

`COc1cccc(-c2ccc(NC(=O)C3=C(C(=O)O)CCC3O)c(F)c2)c1` (stereo not drawn) [Example 17, 2-(3-Fluoro-3'-methoxy-biphenyl-4-ylcarbamoyl)-3-hydroxy-cyclopent-1-enecarboxylic acid]: the half-inhibitory concentration (IC50) is less than 1000 nM.

Turning to `COC(=O)C1=C(C(=O)Nc2ccc(-c3cccc(OC)c3)cc2F)CCC1` [Example 3, 2-(3-Fluoro-3'-methoxy-biphenyl-4-ylcarbamoyl)-cyclopent-1-enecarboxylic acid methyl ester], the IC50 was more than 5000 nM.

For `COc1ccccc1-c1ccc(NC(=O)C2=C(C(=O)O)CCC2O)cc1Cl` (stereo not drawn) [Example 13, 2-(2-Chloro-2'-methoxy-biphenyl-4-ylcarbamoyl)-3-hydroxy-cyclopent-1-enecarboxylic acid], the half-maximal inhibitory concentration (IC50) is less than 1000 nM.

Take `COc1cccc(-c2ccc(NC(=O)C3=C(C(=O)O)CCC3C(=O)O)c(F)c2)c1` (stereo not drawn) [Example 2, 2-(3-Fluoro-3'-methoxy-biphenyl-4-ylcarbamoyl)-cyclopent-1-ene-1,3-dicarboxylic acid]: the IC50 was more than 5000 nM.

As for `O=C(O)C1=C(C(=O)Nc2c(F)c(F)c(-c3cccc(OC(F)(F)F)c3)c(F)c2F)C(O)CC1` (stereo not drawn) [Example 5, 3-Hydroxy-2-(2,3,5,6-tetrafluoro-3'-trifluoromethoxy-biphenyl-4-ylcarbamoyl)-cyclopent-1-enecarboxylic acid], the IC50 was less than 1000 nM.

In the case of `O=C(O)C1=C(C(=O)Nc2c(F)cc(-c3ccccc3Cl)cc2F)C(O)CC1` (stereo not drawn) [Example 15, 2-(2'-Chloro-3,5-difluoro-biphenyl-4-ylcarbamoyl)-3-hydroxy-cyclopent-1-enecarboxylic acid], the half-maximal inhibitory concentration (IC50) was less than 1000 nM.

With `CCOc1cccc(-c2cc(F)c(NC(=O)C3=C(C(=O)O)C(O)CC3)c(F)c2)c1` (stereo not drawn) [Example 8, 2-(3'-Ethoxy-3,5-difluoro-biphenyl-4-ylcarbamoyl)-5-hydroxy-cyclopent-1-enecarboxylic acid], the IC50 is less than 1000 nM.

On to `O=C(O)C1=C(C(=O)Nc2c(F)cc(-c3ccccc3F)cc2F)C(O)CC1` (stereo not drawn) [Example 11, 3-Hydroxy-2-(3,5,2'-trifluoro-biphenyl-4-ylcarbamoyl)-cyclopent-1-enecarboxylic acid], for which the IC50 was less than 1000 nM.

`COc1cccc(-c2ccc(NC(=O)C3=C(C(=O)O)C(C(=O)O)CC3)c(F)c2)c1` (stereo not drawn) [Example 1, 3-(3-Fluoro-3'-methoxy-biphenyl-4-ylcarbamoyl)-cyclopent-2-ene-1,2-dicarboxylic acid]: the IC50 was more than 5000 nM.

Consider `O=C(O)C1=C(C(=O)Nc2c(F)cc(-c3ccccc3Cl)cc2F)CCC1O` (stereo not drawn) [Example 16, 2-(2'-Chloro-3,5-difluoro-biphenyl-4-ylcarbamoyl)-5-hydroxy-cyclopent-1-enecarboxylic acid], for which the 50% inhibitory concentration (IC50) was less than 1000 nM.

With `O=C(O)C1=C(C(=O)Nc2c(F)c(F)c(-c3cccc(OC(F)(F)F)c3)c(F)c2F)CCC1O` (stereo not drawn) [Example 6, 5-Hydroxy-2-(2,3,5,6-tetrafluoro-3'-trifluoromethoxy-biphenyl-4-ylcarbamoyl)-cyclopent-1-enecarboxylic acid], the IC50 was less than 1000 nM.

Regarding `CCOc1cccc(-c2cc(F)c(NC(=O)C3=C(C(=O)O)CCC3O)c(F)c2)c1` (stereo not drawn) [Example 7, 2-(3'-Ethoxy-3,5-difluoro-biphenyl-4-ylcarbamoyl)-3-hydroxy-cyclopent-1-enecarboxylic acid], the half-inhibitory concentration (IC50) was less than 1000 nM.

In the case of `COc1ccccc1-c1ccc(NC(=O)C2=C(C(=O)O)C(O)CC2)cc1Cl` (stereo not drawn) [Example 14, 2-(2-Chloro-2'-methoxy-biphenyl-4-ylcarbamoyl)-5-hydroxy-cyclopent-1-enecarboxylic acid], the IC50 is less than 1000 nM.

For “2-(1',3'di-methoxy-3,5-difluoro-biphenyl-4-ylcarbamoyl)-3-hydroxy-cyclopent-1-enecarboxylic acid [Example 9]”, the IC50 is less than 5000 nM.

As a reminder, the IC50 is the concentration that inhibits the measured activity by half.
